Source: US10487093B2, “Heterocyclic compounds, in particular 2-oxo-4,4,5,5,6,6,7,7-octahydrobenzoxazole derivatives, and their use as antibacterial compounds” (priority 2016, dated 2019)
In brackets after ≈: the same amount, converted by molar mass. Where two headings read alike, the source gives them in different places.

Key:
[1] = test system: human hepatic cell line (HepG2 ATCC HB-8065); test: Human cell viability assay (CellTiter-Glo); conditions: Homo sapiens, HepG2, 24 h, read-out: IC50 (μg/mL) HepG2
[2] = test system: Acinetobacter baumannii NCTC 13420; test: MIC, broth microdilution (CLSI) versus planktonic bacteria; assay type: cell-based
[3] = test system: Streptococcus pneumoniae ATCC 49619; test: as above; assay type: cell-based
[4] = test system: Pseudomonas aeruginosa ATCC 27853; test: as above; assay type: cell-based
[5] = test system: Escherichia coli ATCC 25922; test: as above; assay type: cell-based
[6] = test system: Enterobacter cloacae NCTC 13406; test: as above; assay type: cell-based
[7] = test system: Staphylococcus aureus ATCC 29213; test: as above; assay type: cell-based
[8] = test system: Haemophilus influenzae ATCC 49247; test: as above; assay type: cell-based
[9] = NCTC13420, Acinetobacter baumannii NCTC 13420, 16-20 h, mode of three independent experiments, read-out: MIC, Ab NCTC 13420
[10] = ATCC49619, Streptococcus pneumoniae ATCC 49619, 16-20 h, mode of three independent experiments, read-out: MIC, Sp ATCC 49619
[11] = ATCC27853, Pseudomonas aeruginosa ATCC 27853, 16-20 h, mode of three independent experiments, read-out: MIC, Pa ATCC 27853
[12] = ATCC25922, Escherichia coli ATCC 25922, 16-20 h, mode of three independent experiments, read-out: MIC, Ec ATCC 25922
[13] = NCTC13406, Enterobacter cloacae NCTC 13406, 16-20 h, mode of three independent experiments, read-out: MIC, Ecl NCTC 13406
[14] = ATCC29213, Staphylococcus aureus ATCC 29213, 16-20 h, mode of three independent experiments, read-out: MIC, Sa ATCC 29213
[15] = ATCC49247, Haemophilus influenzae ATCC 49247, 16-20 h, mode of three independent experiments, read-out: MIC, Hi ATCC 49247
[16] = Acinetobacter baumannii, NCTC13420, read-out: MIC, Ab NCTC 13420
[17] = Streptococcus pneumoniae, ATCC49619, read-out: MIC, Sp ATCC 49619
[18] = Pseudomonas aeruginosa, ATCC27853, read-out: MIC, Pa ATCC 27853
[19] = Escherichia coli, ATCC25922, read-out: MIC, Ec ATCC 25922
[20] = Enterobacter cloacae, NCTC13406, read-out: MIC, Ecl NCTC 13406
[21] = Staphylococcus aureus, ATCC29213, read-out: MIC, Sa ATCC 29213
[22] = Haemophilus influenzae, ATCC49247, read-out: MIC, Hi ATCC 49247

CSc1ncc2ccc(=O)n(CCN[C@H]3CC[C@H]4[C@@H](C3)OC(=O)N4c3ccc4c(n3)NC(=O)CO4)c2n1 [Compound 53, (3aS,6S,7aR)-6-({2-[2-(methylsulfanyl)-7-oxo-7H,8H-pyrido[2,3-d]pyrimidin-8-yl]ethyl}amino)-3-{3-oxo-2H,3H,4H-pyrido[3,2-b][1,4]oxazin-6-yl}-octahydro-1,3-benzoxazol-2-one]
IC50 [1]: > 100 µg/mL | MIC [2, 9]: 1 to 10 µg/mL (≈ 1.91 to 19.1 µM) | MIC [3, 10]: 1 to 10 µg/mL (≈ 1.91 to 19.1 µM) | MIC [4, 11]: 10 to 100 µg/mL (≈ 19.1 to 191 µM) | MIC [5, 12]: 1 to 10 µg/mL (≈ 1.91 to 19.1 µM) | MIC [6, 13]: 10 to 100 µg/mL (≈ 19.1 to 191 µM) | MIC [7, 14]: < 1 µg/mL | MIC [8, 15]: 1 to 10 µg/mL (≈ 1.91 to 19.1 µM)

NCCOc1ccc2ccc(=O)n(CCN[C@H]3CC[C@H]4[C@H](C3)OC(=O)N4c3ccc4c(n3)NC(=O)CO4)c2c1 [Compound 75, (3aS,6S,7aS)—N-{2-[7-(2-azaniumylethoxy)-2-oxo-1,2-dihydroquinolin-1-yl]ethyl}-2-oxo-3-{3-oxo-2H,3H,4H-pyrido[3,2-b][1,4]oxazin-6-yl}-octahydro-1,3-benzoxazol-6-aminium dichloride]
IC50 [1]: > 100 µg/mL | MIC [2, 16]: > 100 µg/mL | MIC [3, 17]: < 1 µg/mL | MIC [4, 18]: 1 to 10 µg/mL | MIC [5, 19]: < 1 µg/mL | MIC [6, 20]: 1 to 10 µg/mL | MIC [7, 21]: 1 to 10 µg/mL | MIC [8, 22]: 10 to 100 µg/mL

COc1ccc2ccc(=O)n(CCN(C(=O)CN)[C@H]3CC[C@H]4[C@H](C3)OC(=O)N4c3ccc4c(n3)NC(=O)CO4)c2n1 [Compound 78, {[(3aS,6S,7aS)-2-oxo-3-{3-oxo-2H,3H,4H-pyrido[3,2-b][1,4]oxazin-6-yl}-octahydro-1,3-benzoxazol-6-yl][2-(7-methoxy-2-oxo-1,2-dihydro-1,8-naphthyridin-1-yl)ethyl]carbamoyl}methanaminium chloride]
IC50 [1]: > 100 µg/mL | MIC [2, 16]: 10 to 100 µg/mL | MIC [3, 17]: < 1 µg/mL | MIC [4, 18]: 1 to 10 µg/mL | MIC [5, 19]: 1 to 10 µg/mL | MIC [6, 20]: > 100 µg/mL | MIC [7, 21]: < 1 µg/mL | MIC [8, 22]: 10 to 100 µg/mL

N#Cc1ccc(-c2cccc(CN[C@H]3CC[C@H]4[C@H](C3)OC(=O)N4c3ccc4c(n3)NC(=O)CO4)c2)nc1 [Compound 71, 6-[3-({[(3aS,6S,7aS)-2-oxo-3-{3-oxo-2H,3H,4H-pyrido[3,2-b][1,4]oxazin-6-yl}-octahydro-1,3-benzoxazol-6-yl]amino}methyl)phenyl]pyridine-3-carbonitrile]
IC50 [1]: 10 to 100 µg/mL (≈ 20.1 to 201 µM) | MIC [2, 9]: 1 to 10 µg/mL (≈ 2.01 to 20.1 µM) | MIC [3, 10]: 1 to 10 µg/mL (≈ 2.01 to 20.1 µM) | MIC [4, 11]: 10 to 100 µg/mL (≈ 20.1 to 201 µM) | MIC [5, 12]: < 1 µg/mL | MIC [6, 13]: 1 to 10 µg/mL (≈ 2.01 to 20.1 µM) | MIC [7, 14]: < 1 µg/mL | MIC [8, 15]: 1 to 10 µg/mL (≈ 2.01 to 20.1 µM)

O=C1COc2ccc(N3C(=O)O[C@H]4C[C@@H](NCCn5c(=O)ccc6ccc(OCCN7CCOCC7)cc65)CC[C@@H]43)nc2N1 [Compound 97, 1-(2-{[(3aS,6S,7aS)-2-oxo-3-{3-oxo-2H,3H,4H-pyrido[3,2-b][1,4]oxazin-6-yl}-octahydro-1,3-benzoxazol-6-yl]amino}ethyl)-7-[2-(morpholin-4-yl)ethoxy]-1,2-dihydroquinolin-2-one]
MIC [2, 9]: 1 to 10 µg/mL (≈ 1.65 to 16.5 µM) | MIC [3, 10]: 1 to 10 µg/mL (≈ 1.65 to 16.5 µM) | MIC [4, 11]: 10 to 100 µg/mL (≈ 16.5 to 165 µM) | MIC [5, 12]: 1 to 10 µg/mL (≈ 1.65 to 16.5 µM) | MIC [6, 13]: 10 to 100 µg/mL (≈ 16.5 to 165 µM) | MIC [7, 14]: < 1 µg/mL | MIC [8, 15]: 1 to 10 µg/mL (≈ 1.65 to 16.5 µM)

COc1ccc2ccc(=O)n(CCN[C@@H]3CC[C@@H]4[C@H](C3)OC(=O)N4c3ccc4c(n3)NC(=O)CO4)c2n1 [Compound 25, 1-(2-{[(3aR,6R,7aS)-2-oxo-3-{3-oxo-2H,3H,4H-pyrido[3,2-b][1,4]oxazin-6-yl}-octahydro-1,3-benzoxazol-6-yl]amino}ethyl)-7-methoxy-1,2-dihydro-1,8-naphthyridin-2-one]
IC50 [1]: 10 to 100 µg/mL (≈ 19.7 to 197 µM) | MIC [2, 9]: < 1 µg/mL | MIC [3, 10]: < 1 µg/mL | MIC [4, 11]: 1 to 10 µg/mL (≈ 1.97 to 19.7 µM) | MIC [5, 12]: < 1 µg/mL | MIC [6, 13]: < 1 µg/mL | MIC [7, 14]: < 1 µg/mL | MIC [8, 15]: < 1 µg/mL

COc1ncc2ccc(=O)n(CCN[C@H]3CC[C@H]4[C@@H](C3)OC(=O)N4c3ccc4c(n3)NC(=O)CO4)c2n1 [Compound 17, (3aS,6S,7aR)-6-[(2-{2-methoxy-7-oxo-7H,8H-pyrido[2,3-d]pyrimidin-8-yl}ethyl)amino]-3-{3-oxo-2H,3H,4H-pyrido[3,2-b][1,4]oxazin-6-yl}-octahydro-1,3-benzoxazol-2-one]
IC50 [1]: 10 to 100 µg/mL (≈ 19.7 to 197 µM) | MIC [2, 9]: 10 to 100 µg/mL (≈ 19.7 to 197 µM) | MIC [3, 10]: 10 to 100 µg/mL (≈ 19.7 to 197 µM) | MIC [4, 11]: 10 to 100 µg/mL (≈ 19.7 to 197 µM) | MIC [5, 12]: 1 to 10 µg/mL (≈ 1.97 to 19.7 µM) | MIC [6, 13]: 10 to 100 µg/mL (≈ 19.7 to 197 µM) | MIC [7, 14]: 1 to 10 µg/mL (≈ 1.97 to 19.7 µM) | MIC [8, 15]: 10 to 100 µg/mL (≈ 19.7 to 197 µM)
